According to patent US7517517B2 (Janssen Pharmaceutica N.V., priority 2002, dated 2009):
Marks after values point to notes of the source that are not given here.

How the values were obtained:
[1] = target: mGlu1 receptor (Rattus norvegicus, UniProt P23385); assay: [3H]Compound A binding and autoradiography on rat brain sections
Description: Tissue preparation. Male Wistar rats (200 g) were sacrificed by decapitation. Brains were immediately removed from the skull and were rapidly frozen in dry-ice-cooled 2-methylbutane (−40° C.). Brains were then stored at −70° C. until sectioning. Twenty-micrometer-thick sagittal sections were cut using a Leica C3050 cryostat microtome (Leica Microsystems, Wetzlar, Germany) and thaw-mounted on SuperFrost Plus microscope slides (Menzle-glaser, Germany). The sections were then kept at −70° C. until use.
Receptor autoradiography. Sections were thawed and dried under a stream of cold air, preincubated (3×5 min) in 50 mM Tris-HCl, 1.2 mM MgCl2, 2 mM CaCl2, 0.1% BSA pH 7.4 at room temperature. […] After the incubation, the excess of radioligand was washed off (3×5 min) in ice-cold buffer containing 50 mM Tris-HCl, 1.2 mM MgCl2 and 2 mM CaCl2, followed by a rapid dip in cold distilled water. The sections were dried under a stream of cold air and then exposed to [^3H]Hyperfilm (Amersham, UK) for 6 weeks at room temperature. The films were developed manually in Kodak D19 and fixed with Kodak Readymatic. Some sections were exposed to a Fuji Imaging Plate for 2 days at room temperature and scanned using a Fujix Bass 2000 phosphoimager.

[2] = target: T1, rat mGlu4 receptor (Rattus norvegicus, UniProt P31423); assay: [3H]Compound A binding to membranes from CHO-dhfr− cells expressing the rat mGlu4 receptor; conditions: 20 nM [3H]Compound A, 40 μg membranes
T1 construct: host or cells: CHO-dhfr- cells
Description: (§1) Confluent cells were washed in ice-cold phosphate-buffered saline and stored at −20° C. until membrane preparation. After thawing, cells were suspended in 50 mM Tris-HCl, pH 7.4 and collected through centrifugation for 10 min at 23,500 g at 4° C. The cells were lysed in 10 mM hypotonic Tris-HCl, pH 7.4. After recentrifugation for 20 min at 30,000 g at 4° C., the pellet was homogenized with an Ultra Turrax homogenizer in 50 mM Tris-HCl, pH 7.4. Protein concentrations were measured by the Bio-Rad protein assay using bovine serum albumin as standard.
(§2) After thawing, the membranes were homogenized using an Ultra Turrax homogenizer and suspended in ice-cold binding buffer containing 50 mM Tris-HCl (pH 7.4), 1.2 mM MgCl2, 2 mM CaCl2. For [^3H]Compound A binding, 20 to 160 μg membrane protein and a final concentration of 20 nM [^3H]Compound A was used. As indicated in the results section, different blancs were used to define non-specific binding. Incubation time and temperature as well as filtration were as described for rat mGlu1a receptor CHO-dhfr^− membranes. Expression of rat mGlu2, -3, -5 and mGlu6 receptors was confirmed by specific binding of [^3H]LY341495 (mGlu2, -3 and -6) or [^3H]MPEP (mGlu5). For [^3H]LY341495 binding, 1 nM (mGlu2 and mGlu3) or 10 nM (mGlu6) [^3H]LY341495 was used. […] Assay mixtures were incubated for 30 min (mGlu2 and mGlu3) or 60 min (mGlu6) at 4° C. […]

[3] = target: T2, rat mGlu2 receptor (Rattus norvegicus, UniProt P31421); assay: [3H]Compound A binding to membranes from CHO-dhfr− cells expressing the rat mGlu2 receptor; conditions: 20 nM [3H]Compound A, 40 μg membranes
T2 construct: host or cells: CHO-dhfr- cells
Description: as §1, §2

T2 sequence (P31421 19-872): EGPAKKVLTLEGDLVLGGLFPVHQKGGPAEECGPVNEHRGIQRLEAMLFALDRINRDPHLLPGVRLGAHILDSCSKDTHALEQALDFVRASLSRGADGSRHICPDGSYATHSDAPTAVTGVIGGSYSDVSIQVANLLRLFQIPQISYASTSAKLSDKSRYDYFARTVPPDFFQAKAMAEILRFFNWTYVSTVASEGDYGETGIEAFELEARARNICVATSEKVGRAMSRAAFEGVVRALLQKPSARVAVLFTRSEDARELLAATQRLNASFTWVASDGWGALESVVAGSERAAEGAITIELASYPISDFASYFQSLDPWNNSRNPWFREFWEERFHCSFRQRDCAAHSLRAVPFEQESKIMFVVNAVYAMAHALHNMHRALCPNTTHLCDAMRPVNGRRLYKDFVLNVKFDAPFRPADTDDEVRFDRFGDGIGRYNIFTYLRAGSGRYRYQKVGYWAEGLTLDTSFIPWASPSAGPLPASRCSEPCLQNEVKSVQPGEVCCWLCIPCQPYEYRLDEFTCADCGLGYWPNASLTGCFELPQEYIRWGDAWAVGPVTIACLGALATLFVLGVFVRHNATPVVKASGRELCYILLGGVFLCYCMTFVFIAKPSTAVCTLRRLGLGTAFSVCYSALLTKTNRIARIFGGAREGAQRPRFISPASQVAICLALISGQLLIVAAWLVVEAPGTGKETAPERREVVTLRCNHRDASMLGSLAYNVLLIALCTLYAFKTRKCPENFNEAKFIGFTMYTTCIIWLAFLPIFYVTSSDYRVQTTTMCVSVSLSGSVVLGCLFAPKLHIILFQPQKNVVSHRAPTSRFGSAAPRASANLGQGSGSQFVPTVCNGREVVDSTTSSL
T1 sequence (P31423 33-912): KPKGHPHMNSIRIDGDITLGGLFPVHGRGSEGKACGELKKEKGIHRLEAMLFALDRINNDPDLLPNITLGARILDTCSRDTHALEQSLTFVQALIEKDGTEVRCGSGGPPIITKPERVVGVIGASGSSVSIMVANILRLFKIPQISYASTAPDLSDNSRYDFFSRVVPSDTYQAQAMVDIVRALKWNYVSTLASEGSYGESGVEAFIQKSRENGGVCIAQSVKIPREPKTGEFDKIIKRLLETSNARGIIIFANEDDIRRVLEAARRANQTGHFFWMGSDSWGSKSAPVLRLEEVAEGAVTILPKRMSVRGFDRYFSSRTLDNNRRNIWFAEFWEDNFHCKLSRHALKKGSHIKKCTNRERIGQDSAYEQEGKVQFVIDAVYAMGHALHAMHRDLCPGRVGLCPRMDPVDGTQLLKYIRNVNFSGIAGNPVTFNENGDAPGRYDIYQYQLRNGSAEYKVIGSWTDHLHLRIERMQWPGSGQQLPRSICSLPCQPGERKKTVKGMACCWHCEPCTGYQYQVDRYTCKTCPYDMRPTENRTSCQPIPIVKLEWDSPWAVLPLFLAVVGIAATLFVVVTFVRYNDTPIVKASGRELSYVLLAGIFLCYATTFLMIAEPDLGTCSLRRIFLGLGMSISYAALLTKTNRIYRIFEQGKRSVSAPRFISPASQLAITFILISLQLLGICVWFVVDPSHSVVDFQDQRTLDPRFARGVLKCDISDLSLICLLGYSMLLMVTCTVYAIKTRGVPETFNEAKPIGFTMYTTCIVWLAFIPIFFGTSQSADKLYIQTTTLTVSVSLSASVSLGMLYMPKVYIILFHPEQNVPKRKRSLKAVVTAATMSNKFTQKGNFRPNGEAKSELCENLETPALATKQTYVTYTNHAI

specific binding in autoradiography ([1]; CA3 field and dentate gyrus of hippocampal formation, thalamus, olfactory tubercle, amygdala, substantia nigra reticulata): moderate signal
specific binding in autoradiography ([1]; cerebral cortex, caudate putamen, ventral pallidum, nucleus accumbens): lower labelling
specific binding in autoradiography ([1]; molecular layer of the cerebellum): Very high specific binding
SB (fmoles/mg protein), mGlu4 ([2]; Compound 135 as blanc): 82 fmoles/mg protein
SB (fmoles/mg protein), mGlu4 ([2]; various blancs: 0.1 mM L-SOP): 57^b fmoles/mg protein
SB (fmoles/mg protein), mGlu2 ([3]; Compound 135 as blanc): 0 fmoles/mg protein
SB (fmoles/mg protein), mGlu2 ([3]; various blancs: 1 mM glutamate): 34^a fmoles/mg protein
Compound: [3H]c1ccc(CC(=O)c2ccc3nc4c(cc3c2)CCCO4)cc1 [[^3H]Compound A]
